From ChEMBL document CHEMBL1144007, “Activity of Mannich bases of 7-hydroxycoumarin against Flaviviridae” (Bioorg Med Chem, 2008) come the findings set out here.

Series [1] relates to Vesicular stomatitis virus. Nature of the series: Antiviral activity against vesicular stomatitis virus. The series is classed as functional, organism-based.
A further series has as its system Vaccinia virus. Nature of the series: Antiviral activity against vaccinia virus. The series is classed as functional, organism-based. As to conditions: Orthopoxvirus vaccinia.
The subject of another series is Reovirus sp. Nature of the series: Antiviral activity against Reovirus. Type of series: functional, organism-based.
The test system of series [2] is Human immunodeficiency virus 1. Briefly: Antiviral activity against HIV1. Type of series: functional, organism-based.
Series [3] in a line: Cytotoxicity against human MT4 cells after 96 hrs by MTT method. The series is classed as cell-based.
In series [4] the test system is Bovine viral diarrhea virus 1. Nature of the series: Antiviral activity against BVDV NADL in MDBK cells assessed as protection from virus-induced cytopathogenicity by MTT method. The series is classed as functional, organism-based. Conditions: Bovine viral diarrhea virus isolates and strains. A general note: Protection from cytopathic effect is a common read-out in antiviral testing.

A further series concerns Yellow fever virus. Briefly: Antiviral activity against YFV in BHK cells assessed as protection from virus-induced cytopathogenicity by MTT method. Type of series: functional, organism-based.
Series [5] deals with Respiratory syncytial virus. Briefly: Antiviral activity against RSV A2 in VERO76 cells assessed as reduction of plaque number by MTT method. The series is classed as functional, organism-based. As to conditions: human respiratory syncytial virus, A2, Vero 76. On the technique in general: Formazan colour is commonly taken as a measure of viable cells.
A further series has as its system Poliovirus 1. Briefly: Antiviral activity against Human poliovirus 1 Sabin. The series is classed as functional.

SMILES strings stand for the structures. pEC50: −log10 of the molar value. Activity calls are given as the source filed them. How the calls were made is not given here. Bounds are passed on as bounds.

As to `CC(=O)Oc1ccc2c(C)cc(=O)oc2c1Cc1c[nH]c2ccccc12`, the result (in series [1]; in the series with Vaccinia virus; in the series on Reovirus sp.; in series [2]; in the series on Poliovirus 1) was inactive. In series [3], this compound gave a half-maximal cytotoxic concentration (CC50) at 96 h of 100 µM. Moreover, the results for the negative logarithm of the EC50 (pEC50) (in series [4]; in the series with Yellow fever virus; in series [5]) were at most 4.00, under 4.09 and under 4.00, respectively.

For the compound `CCN(CC)c1oc2cc(OC)ccc2c(=O)c1Cc1c(O)ccc2c(C)cc(=O)oc12`, the result (in [1]; in the series with Vaccinia virus; with Reovirus sp.; in series [2]; in the series with Poliovirus 1) was inactive. Also, the CC50 at 96 h in [3] was over 100 µM. The pEC50 (in [4]; in the series on Yellow fever virus; in series [5]) was under 4.00 in each case.

As to `O=c1ccc2ccc(O)c(CN3CCN(Cc4ccc5c(c4)OCO5)CC3)c2o1`, the result (in series [1]; in the series with Vaccinia virus; in the series on Reovirus sp.; in series [2]; in the series on Poliovirus 1) was inactive. This compound also had a CC50 at 96 h in [3] of 13 µM. Besides, the pEC50 (in series [4]; with Yellow fever virus; in series [5]) was under 4.00 each time.

In the case of `Cc1cc(=O)oc2c(CN3CCN(Cc4ccc5c(c4)OCO5)CC3)c(O)ccc12`, the outcome (in [1]; in the series with Vaccinia virus; in the series on Reovirus sp.; in series [2]; with Poliovirus 1) was inactive. The compound also showed a 50% cytotoxic concentration (CC50) at 96 h in series [3] of 72 µM. The negative-log EC50 (pEC50) is 4.12 in series [4], under 4.00 in the series with Yellow fever virus and under 4.00 in series [5].

With `CC(=O)Oc1ccc2ccc(=O)oc2c1Cc1c(-c2ccccc2)[nH]c2ccccc12`, the outcome (in series [1]; with Vaccinia virus; with Reovirus sp.; in series [2]; with Poliovirus 1) was inactive. In addition, the cytotoxic concentration (CC50) at 96 h in [3] is over 100 µM. For the same compound, the negative-log EC50 (pEC50) in series [4] is under 4.24; in the series on Yellow fever virus, under 4.00; in [5], under 4.00.

Consider `Cc1cc(=O)oc2c(CN3CCN(C/C=C/c4ccccc4)CC3)c(OC(=O)c3ccccc3)ccc12`, for which the outcome (in series [1]; with Vaccinia virus; in the series with Reovirus sp.; in series [2]; with Poliovirus 1) was inactive. The same compound had a 50% cytotoxic concentration (CC50) at 96 h in series [3] of 45 µM. Further, the figures for the pEC50 (in series [4]; in the series with Yellow fever virus; in [5]) were 4.72, under 4.00 and under 4.10, respectively.

Turning to `CCC(=O)Oc1ccc2ccc(=O)oc2c1Cc1c(-c2ccccc2)[nH]c2ccccc12`, the result (in series [1]; with Vaccinia virus; in the series on Reovirus sp.; in series [2]; with Poliovirus 1) was inactive. This compound yielded a CC50 at 96 h in series [3] of over 100 µM. Further, the values for the pEC50 (in series [4]; in the series on Yellow fever virus; in series [5]) were under 4.00, under 4.09 and under 4.00, respectively.

`CCCOc1ccc2ccc(=O)oc2c1CN1CCN(C/C=C/c2ccccc2)CC1`: the result (in series [1]; in the series on Vaccinia virus; in the series on Reovirus sp.; in series [2]; in the series on Poliovirus 1) was inactive. The compound also displayed a CC50 at 96 h in series [3] of 16 µM. The negative logarithm of the EC50 (pEC50) in series [4] was 4.82; with Yellow fever virus, under 4.32; in series [5], under 4.00.

For `Cc1[nH]c2ccccc2c1Cc1c(OC(=O)CCCC(=O)O)ccc2ccc(=O)oc12`, the result (in series [1]; with Vaccinia virus; with Reovirus sp.; in series [2]; with Poliovirus 1) was inactive. This compound showed a CC50 at 96 h in series [3] of 27 µM. The pEC50 in [4] is under 4.17; in the series on Yellow fever virus, under 4.00; in [5] it was under 4.04.

Take `Cc1cc(=O)oc2c(CN3CCOCC3)c(OC(=O)c3ccccc3)ccc12`: the outcome (in [1]; with Vaccinia virus; with Reovirus sp.; in series [2]; in the series with Poliovirus 1) was inactive. Also, the CC50 at 96 h in series [3] was over 100 µM. For the same compound, the pEC50 (in series [4]; with Yellow fever virus; in series [5]) was under 4.00 each time.

Consider `CCN(CC)c1oc2cc(OC)ccc2c(=O)c1Cc1c(OC(C)=O)ccc2ccc(=O)oc12`, for which the result (in series [1]; in the series on Vaccinia virus; with Reovirus sp.; in series [2]; in the series with Poliovirus 1) was inactive. Also, in series [3], the cytotoxic concentration (CC50) at 96 h turned out to be 83 µM. Further, the pEC50 in series [4] was under 4.00; in the series with Yellow fever virus it was under 4.00; in [5] it was 4.70.

`CCCOc1ccc2c(C)cc(=O)oc2c1CN1CCOCC1`: the result (in series [1]; in the series on Vaccinia virus; in the series on Reovirus sp.; in series [2]; in the series on Poliovirus 1) was inactive. Moreover, in [3], the CC50 at 96 h was over 100 µM. The negative-log EC50 (pEC50) (in series [4]; in the series with Yellow fever virus; in series [5]) was under 4.00 throughout.

Consider `C[C@@]1(O)[C@H](O)[C@@H](CO)O[C@H]1n1cnc2c(=O)[nH]c(N)nc21` [2'-B-METHYL-GUANOSINE], for which the outcome (in series [1]; in the series on Vaccinia virus; in the series on Reovirus sp.; in [2]; in the series on Poliovirus 1) was inactive. Moreover, the 50% cytotoxic concentration (CC50) at 96 h in [3] is over 100 µM. For the same compound, the pEC50 is 5.40 in series [4], 6.00 in the series with Yellow fever virus and under 4.00 in series [5].

Turning to `Cc1cc(=O)oc2c(CN3CCc4ccccc4C3)c(O)ccc12`, the result (in series [1]; in the series with Vaccinia virus; with Reovirus sp.; in series [2]; in the series on Poliovirus 1) was inactive. Further, the CC50 at 96 h in [3] is over 100 µM. For the same compound, the negative logarithm of the EC50 (pEC50) (in series [4]; in the series with Yellow fever virus; in series [5]) was under 4.00 throughout.

In the case of `CCC(=O)Oc1ccc2c(C)cc(=O)oc2c1Cc1c(-c2ccccc2)[nH]c2ccccc12`, the outcome (in [1]; in the series with Vaccinia virus; in the series with Reovirus sp.; in series [2]; in the series with Poliovirus 1) was inactive. Moreover, the CC50 at 96 h in series [3] came to 38 µM. Besides, the negative logarithm of the EC50 (pEC50) in [4] was 5.15; in the series on Yellow fever virus, under 4.57; in [5], under 4.00.

With `CC(=O)Oc1ccc2ccc(=O)oc2c1Cc1c(C)[nH]c2ccccc12`, the result (in [1]; in the series with Vaccinia virus; in the series on Reovirus sp.; in series [2]; in the series on Poliovirus 1) was inactive. In addition, half-maximal cytotoxicity in series [3] (CC50 at 96 h) was put at 62 µM. Moreover, the pEC50 in [4] is under 4.07; in the series with Yellow fever virus, under 4.14; in series [5] it was under 4.00.

`Cc1cc(=O)oc2c(CN3CCN(C)CC3)c(O)ccc12`: the result (in [1]; in the series with Vaccinia virus; with Reovirus sp.; in series [2]; in the series on Poliovirus 1) was inactive. In series [3], this compound yielded a CC50 at 96 h of over 100 µM. Moreover, the pEC50 (in series [4]; with Yellow fever virus; in [5]) was under 4.00 in each case.

With `O=C(Oc1ccc2ccc(=O)oc2c1CN1CCN(Cc2ccc3c(c2)OCO3)CC1)c1ccccc1`, the outcome (in [1]; in the series with Vaccinia virus; with Reovirus sp.; in series [2]; in the series with Poliovirus 1) was inactive. The same compound registered a CC50 at 96 h in series [3] of 74 µM. Also, the pEC50 in series [4] is 4.11; in the series on Yellow fever virus it was under 4.00; in series [5], 4.07.

As for `COc1ccc2c(=O)c(Cc3c(OC(C)=O)ccc4c(C)cc(=O)oc34)c(N(C)C)oc2c1`, the outcome (in [1]; with Vaccinia virus; with Reovirus sp.; in series [2]; in the series with Poliovirus 1) was inactive. In series [3], this compound had a CC50 at 96 h of 42 µM. Further, the negative-log EC50 (pEC50) in [4] is under 4.55; in the series on Yellow fever virus it was under 4.00; in series [5], 4.60.

With `COCCN(CCOC)c1oc2ccc3ccccc3c2c(=O)c1Cc1c(OC(C)=O)ccc2c(C)cc(=O)oc12`, the result (in series [1]; in the series with Vaccinia virus; with Reovirus sp.; in [2]; in the series on Poliovirus 1) was inactive. In [3], this compound showed a CC50 at 96 h of over 100 µM. The negative logarithm of the EC50 (pEC50) was under 4.00 in series [4], under 4.00 in the series with Yellow fever virus and at most 4.00 in series [5].

Consider `Cc1cc(=O)oc2c(CN3CCCCC3)c(O)ccc12`, for which the result (in series [1]; with Vaccinia virus; in the series on Reovirus sp.; in [2]; in the series with Poliovirus 1) was inactive. Moreover, the cytotoxic concentration (CC50) at 96 h in [3] was over 100 µM. The negative logarithm of the EC50 (pEC50) (in series [4]; in the series on Yellow fever virus; in series [5]) was under 4.00 each time.

Usually CC50 stands for the concentration that lowers cell viability or growth by half. A high value points to better tolerance by the cells. Usually pEC50 stands for the EC50 on a negative log10 scale, so that one unit is a factor of ten.
